From article PMC6421522, “Designing Dual Inhibitors of Anaplastic Lymphoma Kinase (ALK) and Bromodomain-4 (BRD4) by Tuning Kinase Selectivity” (Journal of Medicinal Chemistry, 2019)

Columns and labels:
Assay in all cases: Bromodomain thermal shift screening (DSF)
Assay type in all cases: binding
BRD4(2) = target: T1, BRD4(2) (Homo sapiens, UniProt O60885); details: Group II (BET)
T1 construct: BRD4(2)
Method: (§1) BRD4 thermal shift was measured in a differential scanning fluorimetry (DSF) assay. The assay was performed on a Stratagene Mx3005P system quantitative polymerase chain reaction (qPCR). The assay was performed in 96-well plates with 20 μL of protein at 2 μM in DSF-assay buffer (10 mM HEPES pH 7.5, 500 mM NaCl) to which 4 μL of Sypro orange dye and 0.4 μL of 10 μM compound in DMSO was added. The plate was sealed and centrifuged (1 min, 1000 rpm), and the qPCR machine was used to detect SYPRO fluorescence while increasing the temperature from 25 to 95 °C in 71 cycles. The sigmoidal part of the fluorescence signal was fitted using the Boltzmann equation, the points of change were defined, and the thermal shift was calculated by subtracting the protein/DMSO Tm shift from the protein/compound Tm shift.

TAF1A(1) = target: T2, TAF1A(1) (Homo sapiens, UniProt P21675); details: Group VII
T2 construct: Bromodomain thermal shift screening data for 16k
T2 sequence (P21675 1397-1505 limits assumed): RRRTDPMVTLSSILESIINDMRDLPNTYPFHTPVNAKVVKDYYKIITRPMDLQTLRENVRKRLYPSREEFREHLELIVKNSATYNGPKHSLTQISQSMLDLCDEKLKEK
Method: as §1

BRD3(2) = target: T3, BRD3(2) (Homo sapiens, UniProt Q15059); details: Group II (BET)
T3 construct: BRD3(2)
T3 sequence (Q15059 306-415 limits assumed, species assumed): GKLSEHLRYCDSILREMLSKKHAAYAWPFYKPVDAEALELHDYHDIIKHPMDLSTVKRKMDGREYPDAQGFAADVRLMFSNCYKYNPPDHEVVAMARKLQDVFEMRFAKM
Method: as §1

BRD3(1) = target: T4, BRD3(1) (Homo sapiens, UniProt Q15059); details: Group II (BET)
T4 construct: BRD3(1)
T4 sequence (Q15059 34-140 limits assumed, species assumed): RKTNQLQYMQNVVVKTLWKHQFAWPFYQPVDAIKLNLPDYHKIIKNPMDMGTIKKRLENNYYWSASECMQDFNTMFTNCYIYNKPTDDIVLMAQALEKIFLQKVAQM
Method: as §1

PB1A(3) = target: T5, PB1A(3) (Homo sapiens, UniProt Q86U86); details: Group VIII
T5 construct: Bromodomain thermal shift screening data for 16k
T5 sequence (Q86U86 381-487 limits assumed): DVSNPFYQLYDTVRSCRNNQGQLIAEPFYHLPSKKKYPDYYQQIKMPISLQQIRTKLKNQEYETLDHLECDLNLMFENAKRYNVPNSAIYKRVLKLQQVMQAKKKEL
Method: as §1

CCOc1cc(C2CCN(C)CC2)ccc1Nc1ncc2c(n1)N(Cc1cc(C)cs1)[C@H](CC)C(=O)N2C [16k, (R)-2-((2-Ethoxy-4-(1-methylpiperidin-4-yl)phenyl)amino)-7-ethyl-5-methyl-8-((4-methylthiophen-2-yl)methyl)-7,8-dihydropteridin-6(5H)-one]
Thermal Shift (BRD4(2)): 4.4 K | Thermal Shift (TAF1A(1)): -0.45 K | Thermal Shift (BRD3(2)): 5.9 K | Thermal Shift (BRD3(1)): 7.3 K | Thermal Shift (PB1A(3)): 0.35 K
